In the OligoGym collection one finds target mRNA inhibition data, which are given here for 89 sequences.

After the bases stand the sugars from the 5' end (letter, count) and the backbone: PS all phosphorothioate, else s phosphorothioate and o phosphodiester by linkage. Methylation of C is not given here. e = 2'-O-(2-methoxyethyl) (MOE); k = constrained ethyl (cEt); d = 2'-deoxy (DNA); m = 2'-O-methyl

The target of one data set is HSD17B13. The note with it: ASO, HepaRG, 0.02 µM.
ATACTTTTCCGTCTCA (sugars k3 d10 k3, PS) registered a target mRNA inhibition of 10%.

The sequence CTTGAATGAGTGGTCT (sugars k3 d10 k3, PS) had a target mRNA inhibition of 10%.

As for GCACCGTTTTGGGCTA (sugars k3 d10 k3, PS), the target mRNA inhibition was 36%.

Still in this data set, the particulars now being: ASO, HepaRG, 0.078 µM.
ATACTTTTCCGTCTCA (sugars k3 d10 k3, PS): the target mRNA inhibition stood at 41%.

As for CTTGAATGAGTGGTCT (sugars k3 d10 k3, PS), the target mRNA inhibition worked out at 16%.

GCACCGTTTTGGGCTA (sugars k3 d10 k3, PS): the target mRNA inhibition is 38%.

Still in this data set, the particulars now being: ASO, HepaRG, 0.313 µM.
For ATACTTTTCCGTCTCA (sugars k3 d10 k3, PS), the target mRNA inhibition turned out to be 71%.

CTTGAATGAGTGGTCT (sugars k3 d10 k3, PS) gave a target mRNA inhibition of 46%.

GCACCGTTTTGGGCTA (sugars k3 d10 k3, PS) registered a target mRNA inhibition of 61%.

Staying with this data set, now noted: ASO, HepaRG, 1 µM.
AGCTTATCGAGTTTAG (sugars k3 d10 k3, PS): the target mRNA inhibition turned out to be 54%.

Consider CTATCAGACTTCTTAC (sugars k3 d10 k3, PS), for which the target mRNA inhibition was determined as 39%.

In turn, “TAATAGCCAGTACAGT (sugars k3 d9 k3 e1, PS)” came in with a target mRNA inhibition of 64%.

In turn, “CTCTGGGACCAAGGAT (sugars k3 d1 m1 d8 k3, PS)” displayed a target mRNA inhibition of 43%.

Regarding “CCAACCAAACTTCCAG (sugars kkdddddddddkekek, PS)”, the target mRNA inhibition was 15%.

For TTCTGTAGGACTCTGC (sugars k3 d10 k3, PS), the target mRNA inhibition amounted to 72%.

The sequence TTGTATGAGGTCTCTC (sugars k3 d10 k3, PS) yielded a target mRNA inhibition of 50%.

The sequence TATGTAATAGCCAGTA (sugars k3 d10 k3, PS) gave a target mRNA inhibition of 50%.

For the sequence GGTGAACCCAGTATTC (sugars k3 d10 k3, PS), the target mRNA inhibition stood at 7%.

Take “TCTAAGTTAGCCCCCA (sugars k3 d9 k3 e1, PS)”: the target mRNA inhibition was 0%.

Take “ATATGTCCAGGTTGAG (sugars k3 d9 k3 e1, PS)”: the target mRNA inhibition came out at 71%.

AGACAGGTAATTAATC (sugars k3 d10 k3, PS) gave a target mRNA inhibition of 29%.

Consider CTCTAGGAGATATAAC (sugars k3 d10 k3, PS), for which the target mRNA inhibition was 49%.

CTTAGTTCATTGTGAT (sugars k3 d10 k3, PS) came in with a target mRNA inhibition of 69%.

With AATACAGGCCATAATC (sugars k3 d10 k3, PS), the target mRNA inhibition turned out to be 16%.

The sequence CTAAAGCAGGCTACTT (sugars k3 d10 k3, PS) gave a target mRNA inhibition of 32%.

“AGTGCCAAACCAATGT (sugars k3 d1 m1 d8 k3, PS)” returned a target mRNA inhibition of 24%.

Consider TAAGAGAAGGTGCACA (sugars k3 d10 k3, PS), for which the target mRNA inhibition was 12%.

Regarding GATAAAATAGGGTGCA (sugars k3 d10 k3, PS), the target mRNA inhibition came to 52%.

For the sequence ATACTTTTCCGTCTCA (sugars k3 d10 k3, PS), the target mRNA inhibition is 90%.

TCTAGAATTAAGGGCT (sugars k3 d10 k3, PS) showed a target mRNA inhibition of 45%.

For AGGCAAAGATCTGGCC (sugars k3 d10 k3, PS), the target mRNA inhibition was 7%.

The sequence “TAGTCTTGATGTAGTG (sugars k3 d9 k3 e1, PS)” displayed a target mRNA inhibition of 61%.

Regarding “TTATAACTACAAGAGG (sugars kkdddddddddkekek, PS)”, the target mRNA inhibition was determined as 55%.

Sequence CCCATAACCATAGGAC (sugars k3 d10 k3, PS) had a target mRNA inhibition of 47%.

Regarding AGTTTATATGGATTTG (sugars k3 d10 k3, PS), the target mRNA inhibition amounted to 67%.

In the case of ATTTTTGGTGAACCCA (sugars k3 d10 k3, PS), the target mRNA inhibition is 8%.

As to GTTAGCAGCTAAAATC (sugars k3 d10 k3, PS), the target mRNA inhibition came to 45%.

TTTAGAGAGCGATAGA (sugars k3 d10 k3, PS) registered a target mRNA inhibition of 13%.

Sequence “CAAGAGGATAGTCCAT (sugars k3 d1 m1 d8 k3, PS)” showed a target mRNA inhibition of 60%.

Sequence “ATCTCTGGGACCAAGG (sugars k3 d9 k3 e1, PS)” showed a target mRNA inhibition of 53%.

AAATATAGAGGGTCCA (sugars k3 d10 k3, PS) showed a target mRNA inhibition of 0%.

With GGATATGTCATCTAAA (sugars k3 d10 k3, PS), the target mRNA inhibition came out at 68%.

Turning to AGTACAGTTCCTTTTC (sugars k3 d10 k3, PS), the target mRNA inhibition was 69%.

Regarding “ACTTGATCTCTTAGCT (sugars kkdddddddddkekek, PS)”, the target mRNA inhibition turned out to be 62%.

CATCTATCAGACTTCT (sugars k3 d10 k3, PS) came in with a target mRNA inhibition of 38%.

With CTGGGATAGTGGAGGA (sugars k3 d10 k3, PS), the target mRNA inhibition worked out at 21%.

As for TCTTATCTTGGGCACC (sugars k3 d10 k3, PS), the target mRNA inhibition was 44%.

“TTGATCTCTTAGCTGT (sugars k3 d9 k3 e1, PS)” registered a target mRNA inhibition of 64%.

CCCAAACATGGATGTT (sugars k3 d10 k3, PS) had a target mRNA inhibition of 72%.

The sequence “GTAACGGTGATCAAAT (sugars k3 d9 k3 e1, PS)” had a target mRNA inhibition of 32%.

TTAGGGAGGTAGCTTT (sugars k3 d10 k3, PS): the target mRNA inhibition worked out at 54%.

For the sequence ATGTCAGACCTCTGTG (sugars k3 d10 k3, PS), the target mRNA inhibition was 19%.

The sequence TTAGTATTTGGGTGTT (sugars k3 d10 k3, PS) registered a target mRNA inhibition of 29%.

As to CTAAGTTAGCCCCCAG (sugars k3 d10 k3, PS), the target mRNA inhibition stood at 15%.

Sequence “AGAAATTCACCTTGAC (sugars k3 d1 m1 d8 k3, PS)” registered a target mRNA inhibition of 9%.

Sequence CTGGAACAATATGGGA (sugars k3 d10 k3, PS) showed a target mRNA inhibition of 38%.

“GTTTCTTATGTAATAG (sugars k3 d1 m1 d8 k3, PS)” registered a target mRNA inhibition of 25%.

Turning to CTTGAATGAGTGGTCT (sugars k3 d10 k3, PS), the target mRNA inhibition was found to be 64%.

As for CTTGCAGAAATTCACC (sugars k3 d10 k3, PS), the target mRNA inhibition amounted to 40%.

GTTAGCTAAGGGAGAG (sugars k3 d10 k3, PS): the target mRNA inhibition was 18%.

The sequence TGAGATGGGCAAGGCC (sugars k3 d10 k3, PS) had a target mRNA inhibition of 53%.

GAAACCTTCATGCTAG (sugars k3 d10 k3, PS) showed a target mRNA inhibition of 31%.

Sequence TTCACCACGATTGTTA (sugars k3 d10 k3, PS) came in with a target mRNA inhibition of 40%.

Take TTGGTTGGAGGCTGTA (sugars k3 d10 k3, PS): the target mRNA inhibition came out at 60%.

The sequence TAACCATAGGACATGG (sugars k3 d10 k3, PS) returned a target mRNA inhibition of 70%.

TATATACCTGTTGCCT (sugars k3 d10 k3, PS) returned a target mRNA inhibition of 55%.

Consider GACATAACTTCATAGT (sugars k3 d10 k3, PS), for which the target mRNA inhibition is 39%.

TCTAGGAGATATAACA (sugars k3 d10 k3, PS): the target mRNA inhibition was 48%.

CTTTGCAGCATTGATT (sugars k3 d10 k3, PS): the target mRNA inhibition came to 47%.

Regarding AATTAAGATGTCCAGG (sugars k3 d10 k3, PS), the target mRNA inhibition stood at 13%.

In turn, CTCTCTAAAGGGCTGC (sugars k3 d10 k3, PS) displayed a target mRNA inhibition of 55%.

In turn, “ATAGCAAGCCAACAGA (sugars k3 d1 m1 d8 k3, PS)” had a target mRNA inhibition of 1%.

CAACACTAATCTCAGT (sugars k3 d10 k3, PS) had a target mRNA inhibition of 4%.

In turn, GATAAGTAGATGGTAA (sugars k3 d10 k3, PS) displayed a target mRNA inhibition of 59%.

Sequence TCACAAAGTCCCTGAC (sugars k3 d10 k3, PS) had a target mRNA inhibition of 11%.

With “TACAGATTGGAATGCT (sugars kkdddddddddkekek, PS)”, the target mRNA inhibition came to 35%.

Regarding CTATAGTAATTGCTAT (sugars k3 d10 k3, PS), the target mRNA inhibition is 0%.

TCCTATATACATCCAA (sugars k3 d10 k3, PS) gave a target mRNA inhibition of 45%.

The sequence GATACCAGTTTTTCCC (sugars k3 d10 k3, PS) displayed a target mRNA inhibition of 75%.

Turning to GTATTTGAGATTCACC (sugars k3 d10 k3, PS), the target mRNA inhibition worked out at 41%.

GACAAGAGTTCTTGCA (sugars k3 d10 k3, PS) showed a target mRNA inhibition of 22%.

Take CTACCTCTAAGTTAGC (sugars k3 d10 k3, PS): the target mRNA inhibition was 6%.

Regarding “CTTGATCTCTTAGCTG (sugars k3 d1 m1 d8 k3, PS)”, the target mRNA inhibition came out at 32%.

In turn, AGGATTAATTCCCTTC (sugars k3 d10 k3, PS) displayed a target mRNA inhibition of 19%.

Regarding “ACAGTAAAATTATGCC (sugars kkdddddddddkekek, PS)”, the target mRNA inhibition was determined as 28%.

As for AATATCCCACAGAACC (sugars k3 d10 k3, PS), the target mRNA inhibition came out at 60%.

ATTAAGTACTGTGAGA (sugars k3 d10 k3, PS) registered a target mRNA inhibition of 1%.

AGTAGAGAGCATAAGT (sugars k3 d10 k3, PS) came in with a target mRNA inhibition of 52%.

“AGGATAGTCCATGCAA (sugars k3 d9 k3 e1, PS)”: the target mRNA inhibition is 61%.

In turn, “TAGTAATCACAAGTAA (sugars k3 d1 m1 d8 k3, PS)” showed a target mRNA inhibition of 38%.

GCACCGTTTTGGGCTA (sugars k3 d10 k3, PS) came in with a target mRNA inhibition of 74%.

CATAACCATAGGACAT (sugars k3 d10 k3, PS) registered a target mRNA inhibition of 41%.

On to TTAGAAACTGCTCCTC (sugars k3 d10 k3, PS), for which the target mRNA inhibition was determined as 48%.

“AGAGGCTAGGGAAATC (sugars k3 d1 m1 d8 k3, PS)” yielded a target mRNA inhibition of 48%.

For “CTTCATAGTGGACTTC (sugars k3 d9 k3 e1, PS)”, the target mRNA inhibition was determined as 57%.

Consider “CTAAAATTGTCTAAAC (sugars k3 d1 m1 d8 k3, PS)”, for which the target mRNA inhibition stood at 13%.

In turn, CAGTAGGTGTGTTTCA (sugars k3 d10 k3, PS) registered a target mRNA inhibition of 47%.

Sequence AAAATGTCCTAGGATG (sugars k3 d10 k3, PS) displayed a target mRNA inhibition of 0%.

The data set is the same for the next values; noted with them: ASO, HepaRG, 1.25 µM.
On to ATACTTTTCCGTCTCA (sugars k3 d10 k3, PS), for which the target mRNA inhibition was 90%.

With CTTGAATGAGTGGTCT (sugars k3 d10 k3, PS), the target mRNA inhibition amounted to 69%.

With GCACCGTTTTGGGCTA (sugars k3 d10 k3, PS), the target mRNA inhibition was found to be 80%.

The same data set, now with this note: ASO, HepaRG, 5 µM.
CTTGAATGAGTGGTCT (sugars k3 d10 k3, PS): the target mRNA inhibition is 88%.

Take GCACCGTTTTGGGCTA (sugars k3 d10 k3, PS): the target mRNA inhibition was determined as 88%.
